Results reported in patent US20100204460A1, “NATURAL BRASSINOSTEROIDS FOR USE FOR TREATING HYPERPROLIFERATION, TREATING PROLIFERATIVE DISEASES AND REDUCING ADVERSE EFFECTS OF STEROID DYSFUNCTION IN MAMMALS, PHARMACEUTICAL COMPOSITION AND ITS USE” (priority 2007, published 2010).

Columns and labels:
Assay type in all cases: cell-based
MCF-7 cells [1] = test: Western blot of cell cycle and apoptosis related proteins, MCF-7; conditions: for MDM-2 expression (Western blot) / expression of apoptosis related proteins (Bcl-2 family, caspase-3 activation) (Western blot) / p21Waf1/Cip1 expression (Western blot) / p27Kip1 expression (Western blot) / p53 expression (Western blot): IC50 for 6, 12, 24 h vs untreated control; for retinoblastoma protein (Rb) expression, phosphorylated and dephosphorylated forms (Western blot): vs untreated control
Experimental: (§1) The cells were seeded in a density 1.6×10^4 cells/cm^2 (LNCaP), 1.4×10^4 cells/cm^2 (DU-145, MDA-MB-468 and MCF-7) using culture medium in 100-mm culture Petri dishes. After reaching of 70-80% confluence, the cells were treated with tested compounds 9 in concentration IC50 that were evaluated by MTT analysis described above. DMSO was used as a vehicle for controls. After 6, 12 and 24 h treatment, the cells were washed with cold PBS and scraped in ice-cold protein extract ion buffer (50 mM HEPES, pH 7.5; 150 mM NaCl; 1 mM EDTA; 2.5 mM EGTA; 10% glycerol; 0.1% Tween 20) with protease and phosphatase inhibitors (25 μL/mL phenylmethanesulphonyl fluoride; 2.5 μL/mL leupeptin; 0.1 mM Na3VO4; 2.5 μL/mL aprotinin; 10 mM β-glycerol-phosphate; 1 mM dithiothreitol). The lysates were collected into microfuge tube and incubated on ice for 1 h. Cells were incubated 60 min at 4° C. under time by time shaking in protein extraction buffer. After centrifugation at 45 000×g for 30 min at 4° C., supernatant was collected, aliquoted, and stored at −80° C. The protein content in the lysates was measured by a Bredford assay (Bio-Rad Laboratories, Hercules, Calif., USA) according to the manufacture's protocol.
(§2) For Western blot analysis, equal aliquots of proteins (15-30 μg/well) were loaded on 10% or 12% SDS-PAGE gels and transferred onto nitrocellulose membranes (Amersham Biosciences, Vienna, Austria) by semi-dry electrophoretic transfer. Coloured marker (Rainbow™, Amersham Biosciences, Vienna, Austria) was used as a protein molecular weight standard. The non-specific binding sites were blocked by incubating the blot with 5% (w/v) non-fat dry milk in PBS for 2 h. The blot was incubated overnight in 4° C. with appropriate primary antibody that detects the protein epitope of interest and finally washed in PBS with 0.1% Tween 20 for 1 h. The blot was incubated with the diluted secondary goat anti-mouse IgG-horseradish peroxidase conjugated antibody (dilution 1:6000, Santa Cruz Biotechnology, Santa Cruz, Calif., USA) or goat anti-rabbit IgG-horseradish peroxidase conjugated antibody (dilution 1:2000, DakoCytomation, Glostrup, Denmark) for 45 min in 4° C. The membrane was washed in PBS with 0.1% Tween 20 for 1 h. The proteins were detected using a chemiluminescence detection system (Amersham Biosciences, Vienna, Austria) according to the protocol provided by the manufacturer. Equality of loaded proteins was confirmed by Ponceau S membrane staining (Sigma, St. Louis, Mo., USA) and by detection of anti-tubulin-α or anti-mcm-7 antibodies. The experiments were repeated three times. The protein expressions in treated cells were compared to untreated controls.
(§3) Western blot analysis was used to detect changes in apoptosis related protein expression in breast and prostate cancer cell lines. […] This decreased expression of Bid can indicate a cleavage of the protein after treatment by BRs. In DU-145 cell line, expression of pro-apoptotic proteins Bax and Bid was unchanged. […] On the other hand, caspase cleavage was not found in DU-145 cells. Poly-(ADP-ribose) polymerase (PARP) positive expression in controls of prostate cancer cell lines was observed but brassinosteroids had no effect on its expression nor on its degradation within the period 6/12/24 h (FIG. 6B).

DU-145 cells = test: Western blot of cell cycle and apoptosis related proteins, DU-145; conditions: for MDM-2 level (Western blot) / anti-apoptotic protein Bcl-2 expression (Western blot): IC50 for 6, 12, 24 h vs untreated control; for p53 expression (Western blot): vs untreated control
Experimental: as §1, §2, §3

MCF-7 cells [2] = test: Cell cycle distribution by flow cytometry, MCF-7; conditions: IC50, 24 h; for Cell cycle distribution S: control 14%; for Apoptosis subG1 fraction: control 17%; for Cell cycle distribution G2/M: control 26%; for Cell cycle distribution G1: control 60%
Source text: In the MCF-7 breast cancer cell line that has been the most widely studied experimental cell system, the typical growth inhibitory response to antiestrogens is decrease in the proportion of cells synthesising DNA (S phase) after antiestrogen treatment. This decrease in S phase coincides with an increase in the proportion of cells in G0/G1 phase. The activity of the androgen receptor (AR) is also regulated by alterations in cell signaling. There has been reported ligand independent activation of AR in prostate cancer cells by different growth factors. As the AR can be activated in the absence of hormone, it appears that the conditions may be more restricted than those observed for ER. Use of physiologic doses of ligand (dihydrotestosterone, DHT) is of importance as the LNCaP cells proliferate only at DHT concentration of 10^−9 M or lower. […] In contrast to proliferation, transactivation of AR specific target genes (e.g. PSA) continues to increase with DHT doses of 10^−10 M and higher. It might be accepted for estrogen or androgen receptors as stronger cytotoxic activities of brassinosteroids 9 or 6 on hormone-sensitive (MCF-7, LNCaP) compared to hormone-insensitive (MDA-MB-468, DU-145) cell lines were found. Therefore we explored the possibility of cell cycle perturbation by BRs in different cancer cell lines. Flow cytometry was used to evaluate the number of cells in the particular phases of the cell cycle, including subG1 peak detection. Control and treated cells were washed twice with cold PBS and centrifuged at 360×g for 10 min at 4° C., and fixed with chilled ethanol (70%; v/v) by low-speeded vortexing. For detection of DNA content analysis, propidium iodide staining was used. The cells were analyzed using a FACSCalibur flow cytometer (BD Biosciences, San Jose, Calif.).
Flow-cytometric detection of apoptosis. Several studies have declared that the induction of apoptosis may be cell cycle-dependent. Therefore, in our next series of experiments, we tested if brassinosteroids 9 or 6 cause apoptosis of the breast and prostate cancer cells via cell cycle blockage. From this reason we carried out DNA cell cycle analysis by flow cytometry based on detection of endonucleolytic DNA degradation that results in extraction of low molecular weight DNA from the cells. […] The subG1 peak containing apoptotic bodies was however not observed in MCF-7 cells.

Structure (SMILES) | MDM-2 expression (Western blot) (MCF-7 cells [1]) | expression of apoptosis related proteins (Bcl-2 family, caspase-3 activation) (Western blot) (MCF-7 cells [1]) | p21Waf1/Cip1 expression (Western blot) (MCF-7 cells [1]) | p27Kip1 expression (Western blot) (MCF-7 cells [1]) | p53 expression (Western blot) (MCF-7 cells [1]) | retinoblastoma protein (Rb) expression, phosphorylated and dephosphorylated forms (Western blot) (MCF-7 cells [1]) | MDM-2 level (Western blot) (DU-145 cells) | anti-apoptotic protein Bcl-2 expression (Western blot) (DU-145 cells) | p53 expression (Western blot) (DU-145 cells) | Cell cycle distribution S (MCF-7 cells [2]) | Apoptosis subG1 fraction (MCF-7 cells [2]) | Cell cycle distribution G2/M (MCF-7 cells [2]) | Cell cycle distribution G1 (MCF-7 cells [2]) | cyclin D1 expression (Western blot) (MCF-7 cells [1]; 6/12/24 h vs untreated control)
CC[C@@H](C(C)C)[C@@H](O)[C@H](O)[C@@H](C)[C@H]1CC[C@H]2[C@@H]3CC(=O)[C@H]4C[C@H](O)[C@H](O)C[C@]4(C)[C@H]3CC[C@]12C [Brassinosteroid 9, 28-Homocastasterone] | decreased expression of MDM-2 regulator of p53 degradation after all time points | no significant changes in expression of Bcl-2 family protein nor caspase-3 activation | increase in p21^Waf1/Cip1 and p27^Kip1 expression after 6 h | increase in p21^Waf1/Cip1 and p27^Kip1 expression after 6 h | after 6 h exposition to brassinosteroids 9 or 6 a slight increase | decreased | decreased level of MDM-2 in all time points | decreased after treatment with 9 (6, 12 and 24 h) | no p53 expression changes | 11% | 15% | 9% | 80% | –
CC(C)[C@@H](C)[C@@H](O)[C@H](O)[C@@H](C)[C@H]1CC[C@H]2[C@@H]3COC(=O)[C@H]4C[C@H](O)[C@H](O)C[C@]4(C)[C@H]3CC[C@]12C [Brassinosteroid 6, 24-Epibrassinolide] | decreased expression of MDM-2 regulator of p53 degradation after all time points | no significant changes in expression of Bcl-2 family protein nor caspase-3 activation | unchanged | decrease after 6 and 12 h | after 6 h exposition to brassinosteroids 9 or 6 a slight increase | decreased | decreased level of MDM-2 in all time points | decreased after treatment with 9 (6, 12 and 24 h) or 6 (6 and 24 h) | no p53 expression changes | 7% | 13% | 12% | 81% | decreased expression of cyclin D1
